Test results reported in PMC8099175, “SARS-CoV-2 M^pro inhibitors with antiviral activity in a transgenic mouse model” (Science (New York, N.y.), 2021).
Where two headings read alike, the source gives them in different places.

Experiments:
[1] = repeated dose toxicity study in rats; format: in vivo; settings: i.v. 6 and 18 mg kg^–1 day^–1, i.p. 100 and 200 mg kg^–1 day^–1, or p.o. 100 and 200 mg/kg twice daily, 7 consecutive days
[2] = tested on: SARS-CoV-2; assay: hACE2 transgenic mouse model of SARS-CoV-2 infection; format: in vivo, hACE2 transgenic mice; settings: for viral RNA loads in the lung tissues: 2 × 10^6 TCID50, 50 mg/kg, 3 and 5 dpi; for viral loads in the lung tissues: 5 dpi; for lung histopathology / neutrophils and macrophages in the lungs vs control mice: 5 × 10^6 TCID50, 3 dpi; for expression levels of IFN-β and CXCL10 in the lungs: 5 × 10^6 TCID50, lung tissue homogenate; for lung viral loads and lung lesions: oral or intraperitoneal treatment, summary statement; for abnormal behaviors or body weight loss: pilot study, 2 × 10^6 TCID50, MI-09 50 mg/kg p.o. bid or i.p. qd, MI-30 50 mg/kg i.p. qd, 6-day period
[3] = PK experiments in Sprague-Dawley rats; settings: rat
Excerpt: To identify which of the six compounds is suitable for in vivo antiviral studies, we conducted PK experiments in Sprague-Dawley rats.

[4] = acute toxicity experiment in rats; format: in vivo; settings: i.v. 40 mg/kg, i.p. 250 mg/kg, or p.o. 500 mg/kg
[5] = tested on: SARS-CoV-2–infected Vero E6 cells; assay: cell protection assay (CCK8); format: cell-based; settings: for EC50: Vero E6 cells, MOI 0.1, 3 dpi, CCK8
[6] = tested on: SARS-CoV-2 in HPAEpiC cells; assay: RT-qPCR virus replication assay in HPAEpiC cells; format: cell-based; settings: for EC90: Severe acute respiratory syndrome coronavirus 2
[7] = 2 × 10^6 TCID50, 50 mg/kg (MI-09 p.o. bid or i.p. qd; MI-30 i.p. qd), 1 dpi
[8] = 5 × 10^6 TCID50, 100 mg/kg i.p. or p.o., 1 dpi
[9] = 5 × 10^6 TCID50, 100 mg/kg i.p. or p.o., 3 dpi
[10] = 5 × 10^6 TCID50, 100 mg/kg i.p. or p.o.
[11] = Sprague-Dawley, in vivo, ip, 20 mg/kg
[12] = Sprague-Dawley, in vivo, iv, 10 mg/kg
[13] = Sprague-Dawley, in vivo, po, 20 mg/kg
[14] = Severe acute respiratory syndrome coronavirus 2, Vero C1008
[15] = Severe acute respiratory syndrome coronavirus 2, read-out: EC50, SARS-CoV-2 virus replication (RT-qPCR)

Structure (SMILES) | toxicity, repeated dose [1] | mean viral RNA loads in the lung tissues vs control [2, 7] | viral RNA loads in the lung tissues [2] | mean viral RNA loads in the lung tissues vs control [2, 8] | mean viral RNA loads in the lung tissues vs control [2, 9] | viral loads in the lung tissues [2, 10] | lung histopathology [2] | neutrophils and macrophages in the lungs vs control mice [2] | expression levels of IFN-β and CXCL10 in the lungs ([2]; 3 dpi) | lung viral loads and lung lesions [2] | abnormal behaviors or body weight loss [2] | AUC [3, 11] | AUC [3, 12] | AUC [3, 13] | bioavailability [3, 13] | mortality, acute toxicity [4] | EC90 [5, 14] | EC50 [5, 14] | EC90 [6] | EC50 [6, 15] | further results
O=C[C@H](C[C@@H]1CCNC1=O)NC(=O)[C@@H]1[C@H]2CCC[C@H]2CN1C(=O)COc1ccc(Cl)cc1Cl [MI-30] | did not result in noticeable toxicity | significantly (P < 0.05, Student’s t test) lower | almost undetectable | slightly lower | significantly lower | undetectable | slight alveolar septal thickening and mild inflammatory cell infiltration | fewer | reduced | significantly reduced | no abnormal behaviors or body weight loss were observed | 14900 ng·h/mL | 9770 ng·h/mL | 2840 ng·h/mL | 14.6% | no rats died | 2120 nM | 540 nM | 58.8 nM | 1.1 nM | half-life [3, 11]: 3.88 h; clearance rate (CL) ([3]; i.p. administration): 17.10 ml min^–1 kg^–1
CC(C)C[C@H](NC(=O)OCc1ccccc1)C(=O)N[C@@H](CC1CCNC1=O)C(O)S(=O)(=O)O (some centres unmarked) [GC376, reference compound] |  |  |  |  |  |  |  |  |  |  |  |  |  |  |  |  |  |  |  |  | EC50 [5]: 1460 nM; EC50 ([6]; HPAEpiC cells, MOI 0.01, 2 dpi, viral RNA copies in supernatant, read-out: EC50, SARS-CoV-2 virus replication (RT-qPCR)): 153 nM
CC1(C)[C@@H]2[C@@H](C(=O)N[C@H](C=O)C[C@@H]3CCNC3=O)N(C(=O)COc3ccc(OC(F)(F)F)cc3)C[C@@H]21 [MI-09] | did not result in noticeable toxicity | significantly (P < 0.05, Student’s t test) lower | almost undetectable | slightly lower | significantly lower | undetectable | slight alveolar septal thickening and mild inflammatory cell infiltration | fewer | reduced | significantly reduced | no abnormal behaviors or body weight loss were observed | 11600 ng·h/mL | 7430 ng·h/mL | 1660 ng·h/mL | 11.2% | no rats died | 3620 nM | 860 nM | 47.9 nM | 1.2 nM | 
